{
  "source": "paper PMC7253369",
  "about": "“Cellular and Structural Basis of Synthesis of the Unique Intermediate Dehydro-F420-0 in Mycobacteria” (mSystems, 2020)",
  "key": {"[1]": {"biological_target": "T1, FbiA (Mycolicibacterium smegmatis, UniProt A0QTG2)", "T1 construct": "expressed in M. smegmatis mc^2155 (homologous host); homodimer", "T1 sequence (A0QTG2 1-327)": "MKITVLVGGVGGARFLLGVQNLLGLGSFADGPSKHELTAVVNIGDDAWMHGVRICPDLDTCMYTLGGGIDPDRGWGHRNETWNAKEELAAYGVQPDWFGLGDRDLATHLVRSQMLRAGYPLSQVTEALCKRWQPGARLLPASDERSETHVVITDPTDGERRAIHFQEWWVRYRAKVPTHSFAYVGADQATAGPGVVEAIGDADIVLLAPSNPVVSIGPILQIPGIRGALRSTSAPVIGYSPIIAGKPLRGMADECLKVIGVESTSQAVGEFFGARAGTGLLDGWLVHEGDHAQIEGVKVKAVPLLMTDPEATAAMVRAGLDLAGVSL", "assay": "X-ray crystal structure, crystal soaking", "format": "binding", "settings": "pH 8.5, 20% glycerol"}, "[2]": {"biological_target": "T1, FbiA", "assay": "X-ray crystal structure, crystal soaking; co-purification with LC-MS", "format": "binding", "settings": "pH 8.5, 20% glycerol; no metal seen; active site of Mol. B; carbonyl part poorly resolved"}, "[3]": {"biological_target": "the molecule itself", "assay": "SEC-MALS; Superdex S200 Increase 10/300 in 200 mM NaCl, 50 mM Tris pH 7.9; purified FbiA; MALS detection (Wyatt)"}},
  "data": [
    {"molecule": "O=c1nc2n(C[C@H](O)[C@H](O)[C@H](O)CO)c3cc(O)ccc3cc-2c(=O)[nH]1", "note": "[Fo]", "values": [
      {"measurement": "X-ray crystal structure, crystal soaking", "setting": "[1]; Fo alone (no metal seen) and with GDP and Ca2+, active site of Mol. B", "result": "FbiA plus Fo, 6UW1; FbiA plus GDP, 6UW3; FbiA plus GDP plus Fo, 6UW5"}
    ]},
    {"molecule": "C=C(OP(=O)(O)OC[C@@H](O)[C@@H](O)[C@@H](O)Cn1c2nc(=O)[nH]c(=O)c-2cc2ccc(O)cc21)C(=O)O", "note": "[DH-F420-0]", "values": [
      {"measurement": "X-ray crystal structure, crystal soaking; co-purification with LC-MS", "setting": "[2]", "result": "FbiA plus DH-F420-0, 6UW7"}
    ]},
    {"molecule": "Nc1nc2c(ncn2[C@@H]2O[C@H](COP(=O)(O)OP(=O)(O)O)[C@@H](O)[C@H]2O)c(=O)[nH]1", "note": "[GDP]", "values": [
      {"measurement": "X-ray crystal structure, crystal soaking", "setting": "[1]; GDP alone and with Fo, active-site Ca2+ in Mol. B, in place of unstable EPPG", "result": "FbiA plus GDP, 6UW3; FbiA plus GDP plus Fo, 6UW5"}
    ]},
    {"molecule": "FbiA from M. smegmatis (enzyme, FbiA (phosphotransferase that makes dehydro-F420-0; homologous to CofD) from Mycobacterium smegmatis, gene MSMEG_1830; Copurifies with its product DH-F420-0 and some mature F420 (small molecules); also called MSMEG_1830; Mol. A; source: M. smegmatis mc2155, pMyNT vector, acetamide-induced, purified (Ni2+ agarose, SEC, TEV cleavage); not shown: His6, N-terminal, cleaved) MKITVLVGGVGGARFLLGVQNLLGLGSFADGPSKHELTAVVNIGDDAWMHGVRICPDLDTCMYTLGGGIDPDRGWGHRNETWNAKEELAAYGVQPDWFGLGDRDLATHLVRSQMLRAGYPLSQVTEALCKRWQPGARLLPASDERSETHVVITDPTDGERRAIHFQEWWVRYRAKVPTHSFAYVGADQATAGPGVVEAIGDADIVLLAPSNPVVSIGPILQIPGIRGALRSTSAPVIGYSPIIAGKPLRGMADECLKVIGVESTSQAVGEFFGARAGTGLLDGWLVHEGDHAQIEGVKVKAVPLLMTDPEATAAMVRAGLDLAGVSL", "values": [
      {"measurement": "stoichiometry N", "setting": "[3]", "result": 2}
    ]}
  ]
}
